Reference: patent US7192906B2, “Substituted pyrazole derivatives, production process thereof, and herbicide compositions containing the derivatives” (SDS Biotech K.K., priority 2001, dated 2007)

How the values were obtained:
Type in all cases: in vivo
Chenopodium album [1] = experiment: Test Example 2 upland soil treatment; settings: Table 5, upland soil treatment, index 0-5
Outline: (§1)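 Seeds are sown into upland soil and covered by roughly 1 cm of soil, then the compound, formulated as a wettable powder and diluted with water, is applied uniformly to the soil surface the following day at 1 kg active ingredient per hectare. Herbicidal effect or phytotoxicity is graded 0 to 5 after 21 days.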

Digitaria adscendens [2] = experiment: Test Example 2 upland soil treatment; settings: Table 5, upland soil treatment, index 0-5
Outline: as §1

Stellaria media [3] = experiment: Test Example 2 upland soil treatment; settings: Table 5, upland soil treatment, index 0-5
Outline: as §1

Setaria viridis [4] = experiment: Test Example 2 upland soil treatment; settings: Table 5, upland soil treatment, index 0-5
Outline: as §1

[5] = test system: wheat (Triticum aestivum); experiment: Test Example 1 upland field foliage treatment, crop phytotoxicity; settings: Table 4, upland field foliage treatment, index 0-5
Outline: (§2)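 Post-emergence foliar spray, 1 kg a.i./ha, wettable powder diluted in water, applied 14 d after sowing in upland soil. Rating 21 d post-application, 0–5 scale: 5 ≥90%, 4 70–<90%, 3 50–<70%, 2 30–<50%, 1 10–<30%, 0 <10% effect or injury.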

soybean (Glycine max) [6] = experiment: as above; settings: Table 4, upland field foliage treatment, index 0-5
Outline: as §2

Chenopodium album [7] = experiment: Test Example 1 upland field foliage treatment; settings: Table 4, upland field foliage treatment, index 0-5
Outline: as §2

Digitaria adscendens [8] = experiment: Test Example 1 upland field foliage treatment; settings: Table 4, upland field foliage treatment, index 0-5
Outline: as §2

Stellaria media [9] = experiment: Test Example 1 upland field foliage treatment; settings: Table 4, upland field foliage treatment, index 0-5
Outline: as §2

Setaria viridis [10] = experiment: Test Example 1 upland field foliage treatment; settings: Table 4, upland field foliage treatment, index 0-5
Outline: as §2

[11] = test system: wheat (Triticum aestivum); experiment: Test Example 2 upland soil treatment, crop phytotoxicity; settings: Table 5, upland soil treatment, index 0-5
Outline: as §1

soybean (Glycine max) [12] = experiment: as above; settings: Table 5, upland soil treatment, index 0-5
Outline: as §1

Rice (Oryza sativa) = experiment: Test Example 3 paddy field treatment, crop phytotoxicity; settings: Table 6, paddy field treatment, transplanted rice, active ingredient 1 kg per hectare, 21st day after dropping, index 0-5
Outline: (§3)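 Scoring used a 0–5 scale of herbicidal effect or phytotoxicity, from <10% to ≥90%, taken 21 days after treatment. Treatment was 1 kg a.i./ha as diluted wettable powder dripped onto 4 cm-deep flooded pots sown with the weeds, 10 days after transplanting two-leaf Koshihikari rice.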

Monochoria vaginalis = experiment: Test Example 3 paddy field treatment; settings: Table 6, paddy field treatment, active ingredient 1 kg per hectare, 21st day after dropping, index 0-5
Outline: as §3

Ammannia multiflora = experiment: Test Example 3 paddy field treatment; settings: Table 6, paddy field treatment, active ingredient 1 kg per hectare, 21st day after dropping, index 0-5
Outline: as §3

Echinochloa crusgalli = experiment: Test Example 3 paddy field treatment; settings: Table 6, paddy field treatment, active ingredient 1 kg per hectare, 21st day after dropping, index 0-5
Outline: as §3

Scirpus juncoides = experiment: Test Example 3 paddy field treatment; settings: Table 6, paddy field treatment, active ingredient 1 kg per hectare, 21st day after dropping, index 0-5
Outline: as §3

## CNC(=O)C(Cn1cc(C)c(-c2ccc(Cl)cc2F)n1)=NOC [Compound 81]
Chenopodium album [1]
  Herbicidal activity CA: Chenopodium album: 5 (herbicidal effect of not less than 90%, or phytotoxicity of 90% or more)
Digitaria adscendens [2]
  Herbicidal activity DA: Digitaria adscendens: 5 (herbicidal effect of not less than 90%, or phytotoxicity of 90% or more)
Stellaria media [3]
  Herbicidal activity SM: Stellaria media: 5 (herbicidal effect of not less than 90%, or phytotoxicity of 90% or more)
Setaria viridis [4]
  Herbicidal activity SV: Setaria viridis: 5 (herbicidal effect of not less than 90%, or phytotoxicity of 90% or more)
[5]
  Herbicidal activity (phytotoxicity) TA: Wheat (Triticum aestivum): 0 (herbicidal effect of not less than 0% and less than 10%, or phytotoxicity of 0% or more and less than 10%)
Soybean (Glycine max) [6]
  Herbicidal activity (phytotoxicity) GM: Soybean (Glycine max): 0 (herbicidal effect of not less than 0% and less than 10%, or phytotoxicity of 0% or more and less than 10%)
Chenopodium album [7]
  Herbicidal activity CA: Chenopodium album: 5 (herbicidal effect of not less than 90%, or phytotoxicity of 90% or more)
Digitaria adscendens [8]
  Herbicidal activity DA: Digitaria adscendens: 5 (herbicidal effect of not less than 90%, or phytotoxicity of 90% or more)
Stellaria media [9]
  Herbicidal activity SM: Stellaria media: 5 (herbicidal effect of not less than 90%, or phytotoxicity of 90% or more)
Setaria viridis [10]
  Herbicidal activity SV: Setaria viridis: 5 (herbicidal effect of not less than 90%, or phytotoxicity of 90% or more)
[11]
  Herbicidal activity (phytotoxicity) TA: Wheat (Triticum aestivum): 0 (herbicidal effect of not less than 0% and less than 10%, or phytotoxicity of 0% or more and less than 10%)
Soybean (Glycine max) [12]
  Herbicidal activity (phytotoxicity) GM: Soybean (Glycine max): 1 (herbicidal effect of not less than 10% and less than 30%, or phytotoxicity of 10% or more and less than 30%)
Rice (Oryza sativa)
  Herbicidal activity (phytotoxicity) OS: 0 (herbicidal effect of not less than 0% and less than 10%, or phytotoxicity of 0% or more and less than 10%)
Monochoria vaginalis
  Herbicidal activity MV: 5 (herbicidal effect of not less than 90%, or phytotoxicity of 90% or more)
Ammannia multiflora
  Herbicidal activity AM: 5 (herbicidal effect of not less than 90%, or phytotoxicity of 90% or more)
Echinochloa crusgalli
  Herbicidal activity EC: 5 (herbicidal effect of not less than 90%, or phytotoxicity of 90% or more)
Scirpus juncoides
  Herbicidal activity SJ: 5 (herbicidal effect of not less than 90%, or phytotoxicity of 90% or more)
